Where “and” joins values, the source holds several entries; their conditions need not be identical. Equal values may be shown once. Read-outs that look alike come from different tables or passages of the source.
What was measured:
PI3Kγ = PI3Kγ (Homo sapiens, UniProt P48736); assay: PI3K kinase activity, γ isoform; type: biochemical; conditions: for inhibition at 0.1 µM: compound 100 nM, read-out: IH (%) @ 100 nM, γ;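 as to all read-outs here: kinase reaction run in 384-well plates, with inhibition normalised between the 0% and 100% reference reactions. IC50 derived from a ten-point, fourfold serial dilution series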
Method: (§6) Concentration setting for preliminary screening: the compounds to be tested were dissolved in DMSO (dimethyl sulfoxide) to 100 μM or 10 μM as storage solutions; for each one, 2 μL was taken to be added to 48 μL of 1× Reaction Buffer to obtain a 4 μM or 400 nM compound solution containing 4% DMSO. After well mixing, the mixture was diluted with 4% DMSO in 1× Reaction Buffer to obtain a 4 μM or 400 nM compound solution. 5 μL of each diluted solution was taken to be added to a 384-well plate, so that the final concentration of the compound in the final 20 μL of the kinase reaction system was 1 μM and 100 nM or 100 nM and 20 nM, respectively, and containing 1% DMSO.
(§7) The compounds to be tested were dissolved in DMSO to 1 mM or 10 mM as working solutions, 1 μL of each working solution was taken to be added to 24 μl of 1× Kinase Buffer A to obtain a 40 μM or 400 μM compound solution containing 4% DMSO. The compound solution was diluted by 4× gradient in sequence, 10 dilution concentrations.
(§8) Calculation of the Inhibition Rate • The inhibitory rate was calculated by the following formula: Inhibitory rate=(ERsample−ER0%)/(ER100%−ER0%)×100%

PI3Kα = PI3Kα (Homo sapiens, UniProt P42336); assay: PI3K kinase activity, α isoform; conditions: for inhibition at 0.02 µM: read-out: IH (%) @ 20 nM, α
Method: as §6, §7, §8

PI3Kδ = PI3Kδ (Homo sapiens, UniProt O00329); assay: PI3K kinase activity, δ isoform; conditions: for inhibition at 0.02 µM: read-out: IH (%) @ 20 nM, δ
Method: as §6, §7, §8

PI3Kβ = PI3Kβ (Homo sapiens, UniProt P42338); assay: PI3K kinase activity, β isoform; conditions: for inhibition at 0.1 µM: read-out: IH (%) @ 100 nM, β;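 as to all read-outs here: kinase reaction containing 1% DMSO, read as an emission ratio, with inhibition scaled between the 0% and 100% control ratios. IC50 values come from a ten-point fourfold dilution series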
Method: as §6, §7, §8

[1] = Preliminary pharmacokinetic test, intravenous injection; type: in vivo, SD rats; conditions: 5 mg/kg, rats, intravenous injection 5 mg/kg, tested as monomesylate; for Vd: read-out: Vss
Method: (§1) 1. 14 healthy SD rats, male, weigh 200-220 g, were taken to be randomly divided into 4 groups, 3-4 in each group, and were administered the tested compound P-17 and compound CYH33 (compared with compound P-17, missing a methyl group on 7-position) via intragastric administration (10 mg/kg) and intravenous injection (5 mg/kg) respectively, the specific arrangements are shown in the following table 3:
(§2) The rats were fasted for 12 h before experiment, water was taken freely. The rats were fed 2 h after dosing.
Dosing via intravenous: 5 min, 0.25 h, 0.5 h, 1.0 h, 2.0 h, 4.0 h, 6.0 h, 8.0 h, and 24 h after dosing.
(§3) At the above setting time points, 0.3 ml of venous blood was taken from the retroorbital venous plexus of the rat, and placed in a heparinized test tube, centrifuged at 11,000 rpm for 5 min, then the plasma was separated, and frozen in a refrigerator at −20° C.
(§4) LC/MS/MS method was used to determine the concentration of the compounds in the plasma of rats.
(§5) The non-compartment model of Phoenix 1.3 software (Pharsight Corporation, USA) was used to calculate the pharmacokinetic parameters after dosing.

[2] = Preliminary pharmacokinetic test, intragastric administration; type: in vivo, SD rats; conditions: rats; for half-life: read-out: T½ (converted)
Method: as §1, §2
Dosing via intragastric administration: 0.25 h, 0.5 h, 1.0 h, 2.0 h, 3.0 h, 4.0 h, 6.0 h, 8.0 h, and 24 h after dosing.
as §3, §4, §5

[3] = male, SD, rat, plasma, iv, Mean
[4] = male, SD, rat, plasma, iv, individual animal

Sequence of PI3Kβ (P42338 whole entry, canonical isoform): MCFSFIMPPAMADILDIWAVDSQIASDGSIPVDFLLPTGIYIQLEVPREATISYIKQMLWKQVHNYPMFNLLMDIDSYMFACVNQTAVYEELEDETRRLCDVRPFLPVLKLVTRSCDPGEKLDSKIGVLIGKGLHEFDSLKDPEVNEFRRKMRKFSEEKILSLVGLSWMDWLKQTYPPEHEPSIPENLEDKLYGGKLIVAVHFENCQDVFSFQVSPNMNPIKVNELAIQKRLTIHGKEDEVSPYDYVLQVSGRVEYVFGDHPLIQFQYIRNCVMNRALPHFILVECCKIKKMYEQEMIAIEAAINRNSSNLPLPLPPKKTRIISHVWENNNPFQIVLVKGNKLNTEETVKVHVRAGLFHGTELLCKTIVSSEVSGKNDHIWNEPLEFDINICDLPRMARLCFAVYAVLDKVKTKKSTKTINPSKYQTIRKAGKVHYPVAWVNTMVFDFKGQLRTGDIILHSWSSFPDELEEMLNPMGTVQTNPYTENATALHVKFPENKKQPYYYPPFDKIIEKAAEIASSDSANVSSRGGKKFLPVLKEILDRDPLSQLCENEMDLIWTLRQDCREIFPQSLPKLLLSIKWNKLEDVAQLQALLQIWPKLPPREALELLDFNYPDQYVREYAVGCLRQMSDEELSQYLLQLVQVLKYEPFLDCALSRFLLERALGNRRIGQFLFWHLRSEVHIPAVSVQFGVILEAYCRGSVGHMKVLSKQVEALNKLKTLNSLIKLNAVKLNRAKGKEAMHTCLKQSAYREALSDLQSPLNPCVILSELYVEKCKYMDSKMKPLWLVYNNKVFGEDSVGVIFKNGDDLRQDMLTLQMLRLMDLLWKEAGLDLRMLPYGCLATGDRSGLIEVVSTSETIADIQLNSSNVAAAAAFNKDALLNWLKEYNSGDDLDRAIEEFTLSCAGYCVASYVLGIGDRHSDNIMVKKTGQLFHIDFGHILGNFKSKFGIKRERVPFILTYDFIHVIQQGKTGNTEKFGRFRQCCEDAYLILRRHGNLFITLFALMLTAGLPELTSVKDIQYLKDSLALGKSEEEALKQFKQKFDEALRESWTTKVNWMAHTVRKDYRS
Sequence of PI3Kβ (P27986 whole entry partner, canonical isoform): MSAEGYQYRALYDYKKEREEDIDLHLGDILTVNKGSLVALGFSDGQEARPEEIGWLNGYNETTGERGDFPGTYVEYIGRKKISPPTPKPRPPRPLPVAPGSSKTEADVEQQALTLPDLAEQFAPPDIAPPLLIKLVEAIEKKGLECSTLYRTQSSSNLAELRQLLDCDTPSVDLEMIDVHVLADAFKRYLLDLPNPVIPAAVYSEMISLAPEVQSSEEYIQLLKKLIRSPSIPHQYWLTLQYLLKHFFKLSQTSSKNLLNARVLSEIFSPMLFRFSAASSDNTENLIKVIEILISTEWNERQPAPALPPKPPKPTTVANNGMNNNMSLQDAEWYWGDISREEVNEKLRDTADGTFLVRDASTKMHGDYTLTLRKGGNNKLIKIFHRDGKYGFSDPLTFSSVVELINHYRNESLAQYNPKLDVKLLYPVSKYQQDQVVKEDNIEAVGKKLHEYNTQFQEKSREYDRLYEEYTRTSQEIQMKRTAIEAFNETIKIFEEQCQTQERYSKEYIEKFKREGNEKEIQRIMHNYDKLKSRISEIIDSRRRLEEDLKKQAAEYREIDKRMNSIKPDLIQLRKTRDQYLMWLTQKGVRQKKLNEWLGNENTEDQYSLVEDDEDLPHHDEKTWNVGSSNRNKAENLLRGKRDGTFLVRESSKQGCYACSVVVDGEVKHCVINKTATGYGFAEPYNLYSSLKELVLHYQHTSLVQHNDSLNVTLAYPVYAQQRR
Sequence of PI3Kδ (O00329 whole entry, canonical isoform): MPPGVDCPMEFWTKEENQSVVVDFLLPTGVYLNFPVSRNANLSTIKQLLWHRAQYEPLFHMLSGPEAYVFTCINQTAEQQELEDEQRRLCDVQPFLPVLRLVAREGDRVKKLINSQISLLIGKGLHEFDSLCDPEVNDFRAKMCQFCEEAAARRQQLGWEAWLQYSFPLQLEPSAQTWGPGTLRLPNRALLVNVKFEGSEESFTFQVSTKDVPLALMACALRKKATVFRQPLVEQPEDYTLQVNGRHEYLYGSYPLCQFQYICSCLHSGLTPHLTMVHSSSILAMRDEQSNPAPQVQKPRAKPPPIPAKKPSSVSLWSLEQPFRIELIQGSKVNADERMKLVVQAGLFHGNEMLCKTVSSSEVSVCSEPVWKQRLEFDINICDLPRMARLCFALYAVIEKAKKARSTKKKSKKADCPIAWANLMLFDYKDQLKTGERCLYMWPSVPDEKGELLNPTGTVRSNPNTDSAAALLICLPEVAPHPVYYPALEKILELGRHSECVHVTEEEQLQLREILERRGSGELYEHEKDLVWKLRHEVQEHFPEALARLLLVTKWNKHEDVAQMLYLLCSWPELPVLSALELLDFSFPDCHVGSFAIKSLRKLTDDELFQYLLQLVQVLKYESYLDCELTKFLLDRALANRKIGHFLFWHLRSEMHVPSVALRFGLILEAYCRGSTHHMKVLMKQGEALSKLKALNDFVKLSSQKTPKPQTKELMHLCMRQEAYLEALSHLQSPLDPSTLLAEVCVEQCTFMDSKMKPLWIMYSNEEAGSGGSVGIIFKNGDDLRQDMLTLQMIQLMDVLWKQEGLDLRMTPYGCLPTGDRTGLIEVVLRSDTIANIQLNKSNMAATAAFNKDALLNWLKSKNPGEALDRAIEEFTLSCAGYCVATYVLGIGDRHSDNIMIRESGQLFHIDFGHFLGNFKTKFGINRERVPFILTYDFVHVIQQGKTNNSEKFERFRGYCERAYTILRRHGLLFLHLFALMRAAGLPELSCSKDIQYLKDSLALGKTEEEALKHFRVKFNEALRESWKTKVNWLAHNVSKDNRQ
Sequence of PI3Kδ (P27986 whole entry partner, canonical isoform): as the sequence (P27986 whole entry partner, canonical isoform) above
Sequence of PI3Kα (P42336 whole entry, canonical isoform): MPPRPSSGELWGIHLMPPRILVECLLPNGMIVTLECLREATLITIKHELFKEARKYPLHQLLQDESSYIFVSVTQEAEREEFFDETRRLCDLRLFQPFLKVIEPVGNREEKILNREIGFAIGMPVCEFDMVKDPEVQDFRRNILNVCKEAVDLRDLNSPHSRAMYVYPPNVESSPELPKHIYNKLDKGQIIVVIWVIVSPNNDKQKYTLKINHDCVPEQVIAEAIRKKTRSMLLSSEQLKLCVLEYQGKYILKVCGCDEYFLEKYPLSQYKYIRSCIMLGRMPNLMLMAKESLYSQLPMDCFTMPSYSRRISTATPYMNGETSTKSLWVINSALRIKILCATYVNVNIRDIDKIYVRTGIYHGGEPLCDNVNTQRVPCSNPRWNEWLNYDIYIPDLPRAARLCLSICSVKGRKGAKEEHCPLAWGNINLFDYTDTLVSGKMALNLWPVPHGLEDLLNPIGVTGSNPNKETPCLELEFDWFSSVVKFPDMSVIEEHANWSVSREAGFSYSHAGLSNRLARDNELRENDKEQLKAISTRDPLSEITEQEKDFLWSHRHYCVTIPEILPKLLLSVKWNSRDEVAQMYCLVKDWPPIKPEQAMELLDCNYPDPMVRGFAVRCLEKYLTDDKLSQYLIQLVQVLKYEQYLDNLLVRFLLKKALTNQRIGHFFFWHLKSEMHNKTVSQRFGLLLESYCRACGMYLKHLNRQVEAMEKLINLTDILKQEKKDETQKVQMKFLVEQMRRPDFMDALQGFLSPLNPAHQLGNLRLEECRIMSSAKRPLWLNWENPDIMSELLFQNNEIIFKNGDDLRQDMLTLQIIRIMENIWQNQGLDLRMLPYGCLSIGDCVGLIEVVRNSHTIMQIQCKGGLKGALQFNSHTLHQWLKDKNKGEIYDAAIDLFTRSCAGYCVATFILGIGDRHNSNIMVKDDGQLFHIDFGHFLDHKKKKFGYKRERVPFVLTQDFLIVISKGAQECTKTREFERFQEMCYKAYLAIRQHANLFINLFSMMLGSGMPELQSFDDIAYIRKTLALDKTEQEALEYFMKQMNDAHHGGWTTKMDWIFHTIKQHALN
Sequence of PI3Kα (P27986 whole entry partner, canonical isoform): as the sequence (P27986 whole entry partner, canonical isoform) above
Sequence of PI3Kγ (P48736 whole entry, canonical isoform): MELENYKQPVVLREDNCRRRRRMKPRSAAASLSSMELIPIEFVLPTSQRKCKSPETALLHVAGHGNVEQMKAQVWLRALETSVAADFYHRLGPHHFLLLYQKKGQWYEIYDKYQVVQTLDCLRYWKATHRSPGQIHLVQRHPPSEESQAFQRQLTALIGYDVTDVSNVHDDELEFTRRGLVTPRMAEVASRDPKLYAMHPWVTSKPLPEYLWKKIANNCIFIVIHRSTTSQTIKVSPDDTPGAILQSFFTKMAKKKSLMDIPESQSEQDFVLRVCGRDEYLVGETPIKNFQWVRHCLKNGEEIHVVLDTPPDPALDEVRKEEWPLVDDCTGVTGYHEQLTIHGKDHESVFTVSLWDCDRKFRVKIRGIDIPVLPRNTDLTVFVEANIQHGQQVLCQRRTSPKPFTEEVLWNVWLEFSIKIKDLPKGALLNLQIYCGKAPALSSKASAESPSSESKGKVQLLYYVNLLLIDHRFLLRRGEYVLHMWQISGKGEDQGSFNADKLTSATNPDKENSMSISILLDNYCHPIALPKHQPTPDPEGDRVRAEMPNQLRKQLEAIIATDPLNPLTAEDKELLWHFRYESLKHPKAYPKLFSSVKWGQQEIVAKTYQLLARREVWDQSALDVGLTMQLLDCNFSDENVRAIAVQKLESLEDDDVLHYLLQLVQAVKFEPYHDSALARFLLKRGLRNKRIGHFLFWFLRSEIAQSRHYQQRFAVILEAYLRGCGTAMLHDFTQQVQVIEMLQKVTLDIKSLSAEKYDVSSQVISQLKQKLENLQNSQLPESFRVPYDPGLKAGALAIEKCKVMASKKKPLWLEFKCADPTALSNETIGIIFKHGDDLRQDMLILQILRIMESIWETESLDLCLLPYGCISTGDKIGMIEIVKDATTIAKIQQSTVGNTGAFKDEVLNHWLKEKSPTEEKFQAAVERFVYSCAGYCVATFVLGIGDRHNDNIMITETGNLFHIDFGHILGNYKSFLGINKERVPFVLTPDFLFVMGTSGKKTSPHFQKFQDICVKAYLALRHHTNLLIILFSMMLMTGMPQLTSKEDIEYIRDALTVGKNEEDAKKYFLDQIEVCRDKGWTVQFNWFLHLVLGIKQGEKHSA

## CS(=O)(=O)N1CCN(Cc2cc3c(N4CCOCC4)nc(-c4cnc(N)cc4C(F)(F)F)nn3c2Cl)CC1 [Compound P-11]
PI3Kγ
  IC50: 248 nM
  inhibition at 0.1 µM: 19.4%
PI3Kα
  IC50: 21.3 nM
  inhibition at 0.02 µM: 72.8%
PI3Kδ
  IC50: 28.1 nM
  inhibition at 0.02 µM: 50.3%
PI3Kβ
  IC50: 1440 nM
  inhibition at 0.1 µM: 15.8%

## Cc1c(CN2CCN(C(=O)C(C)(C)O)CC2)cc2c(N3CCOCC3)nc(-c3cnc(N)cc3C(F)(F)F)nn12 [Compound P-13]
PI3Kγ
  inhibition at 0.1 µM: 2.16%
PI3Kα
  inhibition at 0.02 µM: 30.5%
PI3Kδ
  inhibition at 0.02 µM: 41.2%
PI3Kβ
  inhibition at 0.1 µM: 2.34%

## Cc1c(CN2CCN(C(=O)[C@H](C)O)CC2)cc2c(N3CCOCC3)nc(-c3cnc(N)cc3C(F)(F)F)nn12 [Compound P-14]
PI3Kγ
  IC50: 1950 nM
  inhibition at 0.1 µM: 6.83%
PI3Kα
  IC50: 77.5 nM
  inhibition at 0.02 µM: 24.8%
PI3Kδ
  IC50: 85.6 nM
  inhibition at 0.02 µM: 63.3%
PI3Kβ
  IC50: 2650 nM
  inhibition at 0.1 µM: 3.44%

## COC(=O)Nc1cc(C(F)(F)F)c(-c2nc(N3CCOCC3)c3cc(CN4CCN(S(C)(=O)=O)CC4)c(C)n3n2)cn1 [Compound P-17]
PI3Kγ
  IC50: 290 nM
  inhibition at 0.1 µM: 47%
[1]; [3]
  AUC(0-inf): 3240 ng·h/mL
  AUC(0-t): 2990 ng·h/mL
  clearance: 26.8 mL/min/kg
  half-life: 2.1 h
  Vd: 4.17 L/kg
[1]; male, SD, rat, plasma, iv, Mean, read-out: MRT
  MRT: 2.71 h
[1]; [4]
  AUC(0-inf): 4190 ng·h/mL
  AUC(0-t): 3700 ng·h/mL
  clearance: 19.8 mL/min/kg
  half-life: 2.61 h
  Vd: 4.21 L/kg
[1]; male, SD, rat, plasma, iv, individual animal, read-out: MRT
  MRT: 3.53 h
[1]; individual animal
  AUC 0 − t: 2564 ng·h/mL and 2711 ng·h/mL
  AUC 0 − ∞: 2672 ng·h/mL and 2845 ng·h/mL
  Cl: 31.2 mL/min/kg and 29.3 mL/min/kg
  MRT: 2.13 h and 2.46 h
  T1/2: 1.88 h and 1.82 h
  Vss: 3.98 L/kg and 4.33 L/kg
[2]; male, SD, rat, plasma, oral, 10 mg/kg, 10 mg/kg, Mean, monomesylate
  half-life: 2.77 h
[2]; male, SD, rat, plasma, oral, 10 mg/kg, 10 mg/kg, individual animal, monomesylate
  half-life: 3.08 h
[2]; male, SD, rat, plasma, oral, 10 mg/kg, Mean, monomesylate
  AUC(0-inf): 6120 ng·h/mL
[2]; male, SD, rat, plasma, oral, 10 mg/kg versus 5 mg/kg intravenous, monomesylate, read-out: F (absolute bioavailability)
  bioavailability: 95.8%
[2]; monomesylates
  steady-state distribution volume Vss, average residence time MRT, half-life T½ and absolute bioavailability F compared with CYH33 (in words): improved
PI3Kα
  IC50: 76.2 nM
  inhibition at 0.02 µM: 60.7%
PI3Kδ
  IC50: 75.2 nM
  inhibition at 0.02 µM: 64.1%
PI3Kβ
  IC50: 912 nM
  inhibition at 0.1 µM: 16%

## Cc1c(CN2CCN(S(C)(=O)=O)CC2)cc2c(N3CCOCC3)nc(-c3cnc(NC(=O)NC4CC4)cc3C(F)(F)F)nn12 [Compound P-20]
PI3Kγ
  IC50: 36.6 nM
  inhibition at 0.1 µM: 68.3%
PI3Kα
  IC50: 10.8 nM
  inhibition at 0.02 µM: 102%
PI3Kδ
  IC50: 3.73 nM
  inhibition at 0.02 µM: 83.1%
PI3Kβ
  IC50: 124 nM
  inhibition at 0.1 µM: 57.4%

## CCNC(=O)Nc1cc(C(F)(F)F)c(-c2nc(N3CCOCC3)c3cc(CN4CCN(S(C)(=O)=O)CC4)c(C)n3n2)cn1 [Compound P-21]
PI3Kγ
  IC50: 37.5 nM
  inhibition at 0.1 µM: 74.1%
PI3Kα
  IC50: 21.8 nM
  inhibition at 0.02 µM: 89.3%
PI3Kδ
  IC50: 6.22 nM
  inhibition at 0.02 µM: 107%
PI3Kβ
  IC50: 139 nM
  inhibition at 0.1 µM: 46.3%

## Cc1c(CN2CCN(S(C)(=O)=O)CC2)cc2c(N3CCOCC3)nc(-c3cnc(NC(=O)NC(C)C)cc3C(F)(F)F)nn12 [Compound P-22]
PI3Kγ
  IC50: 311 nM
  inhibition at 0.1 µM: 30.3%
PI3Kα
  IC50: 122 nM
  inhibition at 0.02 µM: 50%
PI3Kδ
  IC50: 29.5 nM
  inhibition at 0.02 µM: 46.5%
PI3Kβ
  IC50: 1540 nM
  inhibition at 0.1 µM: 15.1%

## Cc1c(CN2CCN(S(C)(=O)=O)CC2)cc2c(N3CCOCC3)nc(-c3cnc(NC(=O)Nc4ccc(F)cc4)cc3C(F)(F)F)nn12 [Compound P-23]
PI3Kγ
  IC50: 47.1 nM
  inhibition at 0.1 µM: 67%
PI3Kα
  IC50: 18.7 nM
  inhibition at 0.02 µM: 77.9%
PI3Kδ
  IC50: 10.1 nM
  inhibition at 0.02 µM: 77.1%
PI3Kβ
  IC50: 109 nM
  inhibition at 0.1 µM: 32.6%

## CS(=O)(=O)N1CCN(Cc2cc3nc(-c4cccc5[nH]ncc45)nc(N4CCOCC4)c3s2)CC1 [GDC0941, 2-(1H-indazol-4-yl)-6-[[4-(methylsulfonyl)-1-piperazinyl]methyl]-4-(4-morpholinyl)thieno[3,2-D]pyrimidine, reference compound]
PI3Kα
  inhibition at 0.02 µM: 41.7%
PI3Kδ
  inhibition at 0.02 µM: 56.3%
PI3Kβ
  inhibition at 0.1 µM: 21.1%
